Columns and labels:
Assay in all cases: relative viability (nuclei count vs DMSO), 5 days (fraction); higher = more cells survive
VX-702 + Crizotinib = compound: NC(=O)c1ccc(N(C(N)=O)c2c(F)cccc2F)nc1-c1ccc(F)cc1F [VX-702] + C[C@@H](Oc1cc(-c2cnn(C3CCNCC3)c2)cnc1N)c1c(Cl)ccc(F)c1Cl [Crizotinib] (partner 1 µM)
In short: (§1)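 Dosing by pin tool came one day after lung cancer cell lines were seeded in 1536-well plates, using either one drug or a fixed anchor-drug dose plus five library-drug doses (not always all listed) in √10 steps. After 5 days, nuclei were counted on 4× images. Relative viability is treated-well nuclei count divided by vehicle-well nuclei count, and values are medians of duplicate plates.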

VX-702 + Decitabine = compound: NC(=O)c1ccc(N(C(N)=O)c2c(F)cccc2F)nc1-c1ccc(F)cc1F [VX-702] + Nc1ncn([C@H]2C[C@H](O)[C@@H](CO)O2)c(=O)n1 [Decitabine] (partner 2 µM)
In short: as §1

Dabrafenib + AZD7762 = compound: CC(C)(C)c1nc(-c2cccc(NS(=O)(=O)c3c(F)cccc3F)c2F)c(-c2ccnc(N)n2)s1 [Dabrafenib] + NC(=O)Nc1cc(-c2cccc(F)c2)sc1C(=O)N[C@H]1CCCNC1 [AZD7762] (partner 0.2 µM)
In short: as §1

Dabrafenib + Palbociclib = compound: CC(C)(C)c1nc(-c2cccc(NS(=O)(=O)c3c(F)cccc3F)c2F)c(-c2ccnc(N)n2)s1 [Dabrafenib] + CC(=O)c1c(C)c2cnc(Nc3ccc(N4CCNCC4)cn3)nc2n(C2CCCC2)c1=O [Palbociclib] (partner 0.5 µM)
In short: as §1

Row | Cell Line | relative viability (VX-702 + Crizotinib; first compound 0.02 µM) | relative viability (VX-702 + Crizotinib; first compound 0.2 µM) | relative viability (VX-702 + Crizotinib; first compound 0.6325 µM) | relative viability (VX-702 + Crizotinib; first compound 2 µM) | relative viability (VX-702 + Decitabine; first compound 0.02 µM) | relative viability (VX-702 + Decitabine; first compound 0.2 µM) | relative viability (VX-702 + Decitabine; first compound 0.6325 µM) | relative viability (VX-702 + Decitabine; first compound 2 µM) | relative viability (Dabrafenib + AZD7762; first compound 0.009487 µM) | relative viability (Dabrafenib + AZD7762; first compound 0.03 µM) | relative viability (Dabrafenib + AZD7762; first compound 0.09487 µM) | relative viability (Dabrafenib + AZD7762; first compound 0.3 µM) | relative viability (Dabrafenib + Palbociclib; first compound 0.009487 µM) | relative viability (Dabrafenib + Palbociclib; first compound 0.03 µM) | relative viability (Dabrafenib + Palbociclib; first compound 0.09487 µM) | relative viability (Dabrafenib + Palbociclib; first compound 0.3 µM) | relative viability (Dabrafenib + AZD7762; first compound 0.003 µM) | relative viability (Dabrafenib + Palbociclib; first compound 0.003 µM)
1 | NCI-H1355 | 1.09 | 1.05 | 1.01 | 1.04 | 0.348 | 0.33 | 0.366 | 0.318 | 0.814 | 0.669 | 0.655 | 0.803 | 0.458 | 0.373 | 0.409 | 0.47 | – | –
2 | NCI-H1437 | 0.916 | 0.871 | 0.873 | 1.18 | 0.618 | 0.516 | 0.544 | 0.607 | 1.16 | 1.19 | 1.11 | 1.18 | 0.35 | 0.363 | 0.384 | 0.413 | 1.09 | 0.307
3 | NCI-H1651 | 0.79 | 0.889 | 0.831 | 0.935 | 0.571 | 0.573 | 0.649 | 0.615 | 0.466 | 0.461 | 0.43 | 0.451 | 0.494 | 0.51 | 0.524 | 0.505 | 0.25 | 0.499
4 | NCI-H1666 | 1.1 | 0.923 | 1.03 | 1.12 | 0.655 | 0.691 | 0.751 | 0.536 | 0.879 | 0.742 | 0.778 | 0.937 | 0.671 | 0.675 | 0.565 | 0.686 | 0.592 | 0.643
5 | NCI-H1734 | 0.593 | 0.55 | 0.573 | 0.71 | 0.493 | 0.484 | 0.477 | 0.47 | 0.587 | 0.5 | 0.452 | 0.378 | 0.352 | 0.287 | 0.344 | 0.347 | – | –
6 | NCI-H1755 | 0.919 | 0.784 | 0.894 | 0.972 | 0.699 | 0.732 | 0.703 | 0.797 | 0.446 | 0.353 | 0.435 | 0.471 | 0.425 | 0.435 | 0.411 | 0.415 | 0.331 | 0.429
7 | NCI-H1792 | 1 | 0.913 | 0.992 | 1.17 | 0.555 | 0.614 | 0.491 | 0.532 | 0.723 | 0.434 | 0.34 | 0.485 | 0.718 | 0.66 | 0.63 | 0.66 | – | –
8 | NCI-H1915 | 0.868 | 0.845 | 0.913 | 0.944 | 0.275 | 0.284 | 0.258 | 0.268 | 0.653 | 0.368 | 0.268 | 0.282 | 0.579 | 0.447 | 0.417 | 0.508 | 0.712 | 0.52
9 | NCI-H1944 | 0.963 | 1.01 | 0.985 | 0.829 | 0.431 | 0.437 | 0.46 | 0.431 | 0.537 | 0.397 | 0.457 | 0.555 | 0.342 | 0.326 | 0.319 | 0.318 | 0.219 | 0.325
10 | NCI-H1975 | 0.919 | 0.982 | 0.889 | 1.14 | 0.367 | 0.35 | 0.344 | 0.362 | 0.788 | 0.734 | 0.505 | 0.78 | 0.581 | 0.553 | 0.456 | 0.384 | 0.481 | 0.437
11 | NCI-H1993 | 0.882 | 0.717 | 0.852 | 0.792 | 0.529 | 0.603 | 0.54 | 0.578 | 0.968 | 0.792 | 0.716 | 0.826 | 0.786 | 0.746 | 0.664 | 0.701 | 0.555 | 0.672
12 | NCI-H2085 | 0.921 | 0.926 | 1.03 | 0.908 | 0.568 | 0.575 | 0.627 | 0.524 | 1.11 | 1.01 | 0.874 | 1.01 | 0.463 | 0.501 | 0.471 | 0.456 | 0.724 | 0.455
13 | NCI-H2087 | 0.847 | 0.862 | 0.867 | 0.739 | 0.288 | 0.242 | 0.254 | 0.294 | 1.24 | 1.11 | 0.928 | 1 | 0.218 | 0.246 | 0.235 | 0.208 | – | –
14 | NCI-H2126 | 1.04 | 1.13 | 1.05 | 1.08 | 0.547 | 0.567 | 0.566 | 0.595 | 1.11 | 1.02 | 0.94 | 1.01 | 0.333 | 0.373 | 0.359 | 0.382 | 0.872 | 0.294
15 | NCI-H2170 | 1.28 | 1.09 | 1.24 | 1.4 | 0.444 | 0.415 | 0.466 | 0.486 | 0.841 | 0.616 | 0.64 | 0.745 | 0.377 | 0.383 | 0.377 | 0.397 | 0.282 | 0.429
16 | NCI-H2347 | 0.733 | 0.763 | 0.858 | 0.731 | 0.643 | 0.606 | 0.683 | 0.639 | 0.63 | 0.562 | 0.605 | 0.598 | 0.513 | 0.471 | 0.476 | 0.432 | – | –
17 | NCI-H2405 | 0.791 | 0.813 | 0.774 | 0.99 | 0.727 | 0.709 | 0.709 | 0.759 | 0.805 | 0.592 | 0.597 | 0.598 | 0.555 | 0.374 | 0.491 | 0.485 | – | –
18 | NCI-H3122 | 0.268 | 0.238 | 0.251 | 0.258 | 0.435 | 0.371 | 0.417 | 0.435 | 1.03 | 1.06 | 0.986 | 1.07 | 0.207 | 0.2 | 0.167 | 0.181 | 0.508 | 0.186
19 | PC-3 [JPC-3] | 0.974 | 0.966 | 1.03 | 1.04 | 0.804 | 0.888 | 0.888 | 0.853 | 1.02 | 0.857 | 1.02 | 1.07 | 0.571 | 0.6 | 0.534 | 0.55 | – | –
20 | PC-14 | 0.874 | 0.86 | 0.818 | 1.02 | 0.199 | 0.261 | 0.221 | 0.218 | 0.375 | 0.363 | 0.297 | 0.414 | 0.643 | 0.618 | 0.522 | 0.65 | 0.0746 | –
21 | RERF-LC-KJ | 0.876 | 0.849 | 0.825 | 0.875 | 0.762 | 0.759 | 0.66 | 0.685 | 1.01 | 0.907 | 0.916 | 1.35 | 1.09 | 1.13 | 1.02 | 1.13 | 0.871 | 1.11

From the supplement of paper PMC10307832
